pIC50: −log10 of the molar value. Read-outs that look alike come from different tables or passages of the source.

One experiment deals with H1975 cells. The experiment is described as follows: Cell proliferation and growth inhibition assay (CCK-8) in H1975. The experiment is classed as cell-based. The note with it: treated with test compounds for 72 hrs, CCK-8 viability, read-out: EGFR IC50 in H1975. The procedure: MV-4-11 and H1975 cells were obtained from the American Type Culture Collection and KM12-luc cells were obtained from JCRB Cell Bank. All cell lines were maintained at 37° C. with 5% C02, in media supplemented with 10% fetal bovine serum and penicillin (100 units/mL) and streptomycin (100 μg/mL). MV-4-11 cells were maintained in Iscove's Modified Dubecco's Medium, H1975 cells were cultured with RPMI 1640 media, and KM12-luc cells were maintained in Dulbecco's Modification of Eagle's Medium. CCK-8 reagent was obtained from Yeasen.
Cell proliferation was assessed by CCK-8 assay (Yeasen) per the manufacturer's instructions. The MV-4-11 (AML), H1975, and KM12-luc cells were seeded at 30,000, 3,000 and 2,500 cells per well onto 96-well plates, and after a 24 h incubation, the cells were treated with test compounds for 72 hrs. Cell viability was assayed by incubating the cells with CCK-8 reagent for 1-4 hrs. Absorbance was measured at OD450 using the Beckman DTX880. The data was calculated using GraphPad Prism version 6.01. The IC50 values were fitted using a non-linear regression model with a sigmoidal dose response.

In a further experiment the test system is KM12-luc cells. The experiment is described as follows: Cell proliferation and growth inhibition assay (CCK-8) in KM12-luc. The note with it: KM12-luc cells, treated with test compounds for 72 hrs, CCK-8 viability, read-out: NTRK IC50 in KM12-luc. The experiment is classed as cell-based. Put shortly:
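IC50 values were fitted by sigmoidal dose-response non-linear regression of CCK-8 OD450 absorbance after 1-4 hrs with reagent. Culture media were IMDM for MV-4-11, RPMI 1640 for H1975 and DMEM for KM12-luc, each with 10% FBS at 37 °C, 5% CO2.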

As for `CCC(=O)Nc1cccc(Nc2ncc(F)c(Nc3ccc(N4CCN(C(C)=O)CC4)cc3OC)n2)c1` [Compound 156, N-(3-((4-((4-(4-acetylpiperazin-1-yl)-2-methoxyphenyl)amino)-5-fluoropyrimidin-2-yl)amino)phenyl)propionamide], the pIC50 was 5.55 with H1975 cells (Homo sapiens, NCI-H1975, 72 h) and 6.43 in the experiment on KM12-luc cells (KM12-Luc, 72 h). On the same counts, the results for `CCN(CCN(C)C)c1cc(F)c(Nc2nc(-c3cn(C)c4ccccc34)c3cc[nH]c3n2)cc1NC(C)=O` [Compound 201, N-(2-((2-(dimethylamino)ethyl)(ethyl)amino)-4-fluoro-5-((4-(1-methyl-1H-indol-3-yl)-7H-pyrrolo[2,3-d]pyrimidin-2-yl)amino)phenyl)acetamide] are 5.96 and 6.35. `CCC(=O)Nc1cc(Nc2nc(-c3cn(C)c4ccccc34)c3cc[nH]c3n2)ccc1N(CC)CCN(C)C` [Compound 212b, N-(2-((2-(dimethylamino)ethyl)(ethyl)amino)-5-((4-(1-methyl-1H-indol-3-yl)-7H-pyrrolo[2,3-d]pyrimidin-2-yl)amino)phenyl)propionamide]: the pIC50 in the experiment on H1975 cells (Homo sapiens, NCI-H1975, 72 h) is 5.78; in the experiment with KM12-luc cells (KM12-Luc, 72 h) it was 7.43.

As for `CC(=O)Nc1cc(Nc2nc(-c3c[nH]c4ccccc34)c3cc[nH]c3n2)cc(F)c1N(C)CCN(C)C` [Compound 248a, N-(5-((4-(1H-indol-3-yl)-7H-pyrrolo[2,3-d]pyrimidin-2-yl)amino)-2-((2-(dimethylamino)ethyl)(methyl)amino)-3-fluorophenyl)acetamide], the pIC50 was 6.35 with H1975 cells and 7.89 with KM12-luc cells (KM12-Luc, 72 h). `CC(=O)Nc1cc(Nc2nc(-c3c[nH]c4ccccc34)c3cc[nH]c3n2)cc(F)c1N(C)CCN(C)C` [Compound 248b, N-(5-((4-(1H-indol-3-yl)-7H-pyrrolo[2,3-d]pyrimidin-2-yl)amino)-2-((2-(dimethylamino)ethyl)(methyl)amino)-3-fluorophenyl)acetamide]: the results for the pIC50 in the experiment with H1975 cells and in the experiment on KM12-luc cells were 5.98 and 7.77, respectively. On to `CC(=O)Nc1cc(Nc2ncc(C(F)(F)F)c(-c3cn(C)c4ccccc34)n2)ccc1N(C)CCN(C)C` [Compound 296, N-(2-((2-(dimethylamino)ethyl)(methyl)amino)-5-((4-(1-methyl-1H-indol-3-yl)-5-(trifluoromethyl)pyrimidin-2-yl)amino)phenyl)acetamide], for which the pIC50 with H1975 cells (Homo sapiens, NCI-H1975, 72 h) was 5.97; in the experiment on KM12-luc cells, 7.97. For the molecule `CCC(=O)Nc1cc(Nc2ncc(C(F)(F)F)c(-c3c[nH]c4ccccc34)n2)ccc1N(C)CCN(C)C` [Compound 298, N-(5-((4-(1H-indol-3-yl)-5-(trifluoromethyl)pyrimidin-2-yl)amino)-2-((2-(dimethylamino)ethyl)(methyl)amino)phenyl)propionamide], the pIC50 is 6.54 in the experiment with H1975 cells (Homo sapiens, NCI-H1975, 72 h) and 7.36 in the experiment on KM12-luc cells (KM12-Luc, 72 h). Turning to `COc1cnc(Nc2ccc(N(C)CCN(C)C)c(N)c2)nc1-c1c[nH]c2c(C)cccc12` [Compound 532, N^1-(2-(dimethylamino)ethyl)-N^1-methyl-N^4-(5-methoxy-4-(7-methyl-1H-indol-3-yl)pyrimidin-2-yl)benzene-1,2,4-triamine], the pIC50 in the experiment with H1975 cells (Homo sapiens, NCI-H1975, 72 h) is 6.10. Same read-out and setting: as for `COc1cnc(Nc2ccc(N(C)CCN(C)C)c(NC(C)=O)c2)nc1-c1c[nH]c2c(C)cccc12` [Compound 533, N-(2-((2-(dimethylamino)ethyl)(methyl)amino)-5-((5-methoxy-4-(7-methyl-1H-indol-3-yl)pyrimidin-2-yl)amino)phenyl)acetamide], the figure is 5.96; as for `CCC(=O)Nc1cc(Nc2ncc(OC)c(-c3c[nH]c4c(C)cccc34)n2)ccc1N(C)CCN(C)C` [Compound 534, N-(2-((2-(dimethylamino)ethyl)(methyl)amino)-5-((5-methoxy-4-(7-methyl-1H-indol-3-yl)pyrimidin-2-yl)amino)phenyl)propionamide], 5.89; as for `COc1cnc(Nc2ccc(N(C)CCN(C)C)c(N)c2)nc1-c1c[nH]c2c(OC)cccc12` [Compound 536, N^1-(2-(dimethylamino)ethyl)-N^1-methyl-N^4-(5-methoxy-4-(7-methoxy-1H-indol-3-yl)pyrimidin-2-yl)benzene-1,2,4-triamine], 6.08. As to `COc1cnc(Nc2ccc(N(C)CCN(C)C)c(NC(C)=O)c2)nc1-c1c[nH]c2c(C)cccc12` [Compound 537, N-(2-((2-(dimethylamino)ethyl)(methyl)amino)-5-((5-methoxy-4-(7-methyl-1H-indol-3-yl)pyrimidin-2-yl)amino)phenyl)acetamide], the pIC50 in the experiment with H1975 cells is 5.97. Consider `CCC(=O)Nc1cc(Nc2ncc(OC)c(-c3c[nH]c4c(OC)cccc34)n2)ccc1N(C)CCN(C)C` [Compound 538, N-(2-((2-(dimethylamino)ethyl)(methyl)amino)-5-((5-methoxy-4-(7-methoxy-1H-indol-3-yl)pyrimidin-2-yl)amino)phenyl)propionamide], for which the pIC50 in the experiment with H1975 cells (Homo sapiens, NCI-H1975, 72 h) is 5.43. As for `CCC(=O)Nc1cc(Nc2ncc(C(F)(F)F)c(-c3c[nH]c4c(F)cccc34)n2)ccc1N(C)CCN(C)C` [Compound 540, N-(2-((2-(dimethylamino)ethyl)(methyl)amino)-5-((4-(7-fluoro-1H-indol-3-yl)-5-(trifluoromethyl)pyrimidin-2-yl)amino)phenyl)propionamide], the pIC50 in the experiment on H1975 cells (Homo sapiens, NCI-H1975, 72 h) is 7.02. Still for that read-out and setting: the figure for `CCC(=O)Nc1cc(Nc2ncc(C(F)(F)F)c(-c3c[nH]c4c(C)cccc34)n2)ccc1N(C)CCN(C)C` [Compound 542, N-(2-((2-(dimethylamino)ethyl)(methyl)amino)-5-((4-(7-methyl-1H-indol-3-yl)-5-(trifluoromethyl)pyrimidin-2-yl)amino)phenyl)propionamide] is 7.09; for `CCC(=O)Nc1cc(Nc2ncc(C(F)(F)F)c(-c3c[nH]c4c(OC)cccc34)n2)ccc1N(C)CCN(C)C` [Compound 543, N-(2-((2-(dimethylamino)ethyl)(methyl)amino)-5-((4-(7-methoxy-1H-indol-3-yl)-5-(trifluoromethyl)pyrimidin-2-yl)amino)phenyl)propionamide] it is 7.17. Same read-out and setting: the figure for `CN(C)CCN(C)c1ccc(Nc2nccc(-c3c[nH]c4c(F)cccc34)n2)cc1N` [Compound 545, N^1-(2-(dimethylamino)ethyl)-N^1-methyl-N^4-(4-(7-fluoro-1H-indol-3-yl)pyrimidin-2-yl)benzene-1,2,4-triamine] is 6.06; for `CC(=O)Nc1cc(Nc2nccc(-c3c[nH]c4c(F)cccc34)n2)ccc1N(C)CCN(C)C` [Compound 546, N-(2-((2-(dimethylamino)ethyl)(methyl)amino)-5-((4-(7-fluoro-1H-indol-3-yl)pyrimidin-2-yl)amino)phenyl)acetamide] it is 5.99. Still for that read-out and setting: the figure for `CCC(=O)Nc1cc(Nc2nccc(-c3c[nH]c4c(F)cccc34)n2)ccc1N(C)CCN(C)C` [Compound 547, N-(2-((2-(dimethylamino)ethyl)(methyl)amino)-5-((4-(7-fluoro-1H-indol-3-yl)pyrimidin-2-yl)amino)phenyl)propionamide] is 5.93. On to `Cc1cccc2c(-c3ccnc(Nc4ccc(N(C)CCN(C)C)c(N)c4)n3)c[nH]c12` [Compound 549, N^1-(2-(dimethylamino)ethyl)-N^1-methyl-N^4-(4-(7-methyl-1H-indol-3-yl)pyrimidin-2-yl)benzene-1,2,4-triamine], for which the pIC50 with H1975 cells (Homo sapiens, NCI-H1975, 72 h) is 6.17. Same read-out and setting: the figure for `CCC(=O)Nc1cc(Nc2nccc(-c3c[nH]c4c(C)cccc34)n2)ccc1N(C)CCN(C)C` [Compound 550, N-(2-((2-(dimethylamino)ethyl)(methyl)amino)-5-((4-(7-methyl-1H-indol-3-yl)pyrimidin-2-yl)amino)phenyl)propionamide] is 5.82; for `CC(=O)Nc1cc(Nc2nccc(-c3c[nH]c4c(C)cccc34)n2)ccc1N(C)CCN(C)C` [Compound 551, N-(2-((2-(dimethylamino)ethyl)(methyl)amino)-5-((4-(7-methyl-1H-indol-3-yl)pyrimidin-2-yl)amino)phenyl)acetamide] it is 5.81; for `COc1cccc2c(-c3ccnc(Nc4ccc(N(C)CCN(C)C)c(N)c4)n3)c[nH]c12` [Compound 553, N^1-(2-(dimethylamino)ethyl)-N^4-(4-(7-methoxy-1H-indol-3-yl)pyrimidin-2-yl)-N^1-methylbenzene-1,2,4-triamine] it is 5.95. Same read-out and setting: the figure for `COc1cccc2c(-c3ccnc(Nc4ccc(N(C)CCN(C)C)c(NC(C)=O)c4)n3)c[nH]c12` [Compound 554, N-(2-((2-(dimethylamino)ethyl)(methyl)amino)-5-((4-(7-methoxy-1H-indol-3-yl)pyrimidin-2-yl)amino)phenyl)acetamide] is 5.99. Regarding `CCC(=O)Nc1cc(Nc2nccc(-c3c[nH]c4c(OC)cccc34)n2)ccc1N(C)CCN(C)C` [Compound 555, N-(2-((2-(dimethylamino)ethyl)(methyl)amino)-5-((4-(7-methoxy-1H-indol-3-yl)pyrimidin-2-yl)amino)phenyl)propionamide], in the experiment on H1975 cells (Homo sapiens, NCI-H1975, 72 h), the pIC50 is 5.65.

One may read the pIC50 as the IC50 on a negative log10 scale, so that one unit is a factor of ten.

Values taken from patent publication US20250136576A1, “Heterocyclic Compounds and Uses Thereof” (ACEA Therapeutics, Inc., priority 2021, published 2025).
